Patent publication US20250179187A1, “ANTI PD-L2 ANTIBODY” (REJUVERON SENESCENCE THERAPEUTICS AG, priority 2022, published 2025)

Tested on: PyMT spontaneous tumors
Assay: Spontaneous mouse PyMT breast tumor model with tumor immunostaining
Format: in vivo
Details: immunohistochemistry; antibody co-treated with doxorubicin vs Vehicle or Doxorubicin+mIgG1 (p<0.05)
Experimental: Hemizygous transgenic PyMT mice were allowed to develop tumors to an average size of around 200 cubic millimeters, usually around 9 weeks, at which time treatment was initiated, with N=3-5 per treatment group. Doxorubicin (Aurovitas) was administered intraperitoneally once per week at 4 mg/kg and antibodies were administered every three days at a dose of 10 mg/kg during four weeks or 3 mg/kg where noted. Vehicle-treated animals received only vehicle solvent for doxorubicin as a no-treatment control. Tumors were measured with a standard caliper once per week. At the end of the study, tumors were resected and further analyzed by immunohistochemistry. […]
For double SA-beta-galactosidase/PD-L2 staining, following resection, tumors were fixed in 2% paraformaldehyde and 0.2% glutaldehyde in PBS for 2 hours at room temperature. […] To quantify the number of cells double positive for SA-beta-galactosidase and PDL2, 3 random fields from 2 mammary glands from each animal in each treatment group was analyzed with Image J software. Staining for CD3, CD4 and CD8 was also carried out by standard immunohistochemistry techniques on paraffin-embedded material and quantified according to pixel density using Image J software.

`COc1cccc2c1C(=O)c1c(O)c3c(c(O)c1C2=O)C[C@@](O)(C(=O)CO)C[C@@H]3O[C@H]1C[C@H](N)[C@H](O)[C@H](C)O1` [doxorubicin, reference compound] was tested, and the “cells double-positive for PD-L2 and SA-βGal in PyMT tumors” value was “significantly induces double-positive cells”.
